Assays:
PHGDH [1] = molecular target: T1, PHGDH (Homo sapiens (Human), UniProt O43175); assay: PHGDH inhibition, coupled assay with PSAT1/PSPH and diaphorase/resazurin readout; format: biochemical; details: Table E9; mixture with PSAT1, PSPH; diaphorase/resazurin reporter
[2] = tested on: MDA-MB-231 cells over-expressing PHGDH; assay: Intracellular serine in MDA-MB-231 cells expressing PHGDH, medium lacking serine and glycine (LC-MS); format: cell-based, human; details: media lacking serine and glycine
Description: To examine target engagement of PHGDH inhibitors in cells, MDA-MB-231 cells that lack detectable expression of PHGDH and MDA-MB-231 cells that stably express full-length human PHGDH (MDA-MB-231-PHGDH) were treated with PHGDH inhibitors in RPMI lacking serine and glycine. A MDA-MB-231 cell line was constructed which expresses PHGDH for comparison against the MDA-MB-231 empty vector line. MDA-MB-231 breast cancer cells were infected with PHGDH-expressing retrovirus.
MDA-MB-231 cells are incapable of synthesizing serine, but the addition of PHGDH permits these cells to synthesize serine. […] Concentrations of serine were determined by comparison with signals of internal standards and calibration curves. PHGDH inhibition reduces steady-state levels of intracellular serine in MDA-MB-231 cells over-expressing PHGDH. Studies were also performed in MDA-MB-468 cells, which over-express PHGDH and are PHGDH-dependent.
Cells were evenly seeded at 400,000 cells per well of a 6-well plate and allowed to attach for 24 hours. Prior to all labeling experiments, cells were pretreated with 10 μM compound or an equivalent volume of DMSO in RPMI for 1 hour. For steady-state metabolite concentrations, cells were washed with PBS prior to pretreatment and treatment in RPMI lacking serine and glycine. For labeling experiments, U-^13C-glucose, U-^13C-serine, or U-^13C-glycine replaced the corresponding unlabeled RPMI component. Cells were washed in 4° C. […] Triplicate identically seeded wells were trypsinzed and analyzed with a Multisizer Coulter Counter (Beckman Coulter) to obtain cell counts and total cell volumes for normalization.
Dried metabolites were resuspended in 100 μL water, centrifuged at 13,000×g at 4° C. for 10 minutes, and the supernatant recovered for analysis. […] Metabolites were monitored using a polarity-switching full-scan method and identified by accurate mass (±20 ppm) and retention time within 15 seconds of a previously run pure standard. […]

panel of 168 GPCRs = assay: Cross-reactivity in a panel of 168 GPCRs
PHGDH [3] = molecular target: T1, PHGDH; assay: Differential scanning fluorimetry; format: binding
Description: Destabilization has been previously observed in the specific binding of small molecules to their protein targets (see, e.g., Hamiaux, C. et al. “DAD2 is an α/β hydrolase likely to be involved in the perception of the plant branching hormone, strigolactone.” Curr Biol 22, 2032-2036 (2012)).
Differential scanning fluorimetry assays were carried out in 20 mM TEA pH 8, 100 mM NaCl, 1× SYPRO Orange (Sigma), 2 μM PHGDH in a volume of 10 μL. Unfolding was monitored using a LightCycler 480 II real-time PCR instrument (λex=465 nm and λem=580 nm) over a linear 20 to 85° C. gradient. Plots of the first derivative of fluorescence vs. temperature were generated in LightCycler software.

HSD17B4 = HSD17B4 (Homo sapiens (Human), UniProt P51659); assay: Counter-screen against HSD17B4; format: biochemical; details: Table E11
Chain of HSD17B4 (P51659 whole entry, species assumed): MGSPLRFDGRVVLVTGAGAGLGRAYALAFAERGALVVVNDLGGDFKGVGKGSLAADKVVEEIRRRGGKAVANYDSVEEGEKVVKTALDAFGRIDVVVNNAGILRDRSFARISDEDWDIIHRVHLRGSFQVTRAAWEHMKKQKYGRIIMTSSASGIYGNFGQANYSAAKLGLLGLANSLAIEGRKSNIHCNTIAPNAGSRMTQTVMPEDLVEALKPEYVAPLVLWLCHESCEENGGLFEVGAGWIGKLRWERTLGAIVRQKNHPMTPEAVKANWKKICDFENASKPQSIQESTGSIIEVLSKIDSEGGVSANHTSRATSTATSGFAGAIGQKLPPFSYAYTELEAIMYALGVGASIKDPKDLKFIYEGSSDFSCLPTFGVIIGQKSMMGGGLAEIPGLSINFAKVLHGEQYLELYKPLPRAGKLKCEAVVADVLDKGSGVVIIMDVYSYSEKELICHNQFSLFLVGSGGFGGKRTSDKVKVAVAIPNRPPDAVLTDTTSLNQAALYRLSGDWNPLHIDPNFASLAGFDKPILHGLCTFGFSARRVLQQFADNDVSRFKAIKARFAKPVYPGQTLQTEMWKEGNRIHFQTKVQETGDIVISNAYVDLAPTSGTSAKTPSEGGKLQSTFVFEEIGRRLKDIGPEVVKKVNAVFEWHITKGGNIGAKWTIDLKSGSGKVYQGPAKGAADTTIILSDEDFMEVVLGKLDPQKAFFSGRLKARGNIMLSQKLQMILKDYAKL

[4] = tested on: panel of other dehydrogenases; assay: Panel of other dehydrogenases; format: biochemical
MDA-MB-468 cells = assay: Metabolite profiling and 13C labeling in MDA-MB-468 cells (LC-MS); format: cell-based, human; details: washout
Description: To track the effects of PHGDH inhibition on glycolysis and serine biosynthesis, MDA-MB-231 and MDA-MB-468 cells were fed universally labeled carbon-13 glucose and the intracellular ratio of labeled to unlabeled glucose was measured at the times indicated in FIG. 3E.
Cells were evenly seeded at 400,000 cells per well of a 6-well plate and allowed to attach for 24 hours. Prior to all labeling experiments, cells were pretreated with 10 μM compound or an equivalent volume of DMSO in RPMI for 1 hour. For steady-state metabolite concentrations, cells were washed with PBS prior to pretreatment and treatment in RPMI lacking serine and glycine. For labeling experiments, U-^13C-glucose, U-^13C-serine, or U-^13C-glycine replaced the corresponding unlabeled RPMI component. Cells were washed in 4° C. 0.9% (w/v) NaCl in LCMS-grade water and extracted in 1 mL/well of 80:20 (v/v) methanol:water with 0.01 ng/mL Val-d8 and Phe-d8 as internal extraction standards. The extraction solvent was dried under nitrogen gas and metabolite samples were stored at −80° C. until analysis. Triplicate identically seeded wells were trypsinzed and analyzed with a Multisizer Coulter Counter (Beckman Coulter) to obtain cell counts and total cell volumes for normalization.
Dried metabolites were resuspended in 100 μL water, centrifuged at 13,000×g at 4° C. for 10 minutes, and the supernatant recovered for analysis. Chromatographic separation was achieved by injecting 1 pi of sample on a SeQuant ZIC-pHILIC Polymeric column (2.1 3 150 mm […], EMD Millipore). Flow rate was set to 0.1 ml per minute, column compartment was set to 25° C., and autosampler sample tray was set to 4° C. Mobile Phase A consisted of 20 mM ammonium carbonate, 0.1% ammonium hydroxide. Mobile Phase B was 100% acetonitrile. The mobile phase gradient (% B) was as follows: 0 min 80%, 30 min 20%, 31 min 80%, 42 min 80%. All mobile phase was introduced into the ionization source set with the following parameters: sheath gas=40, auxiliary gas=15, sweep gas=5, spray voltage=−3.1 kV or +3.0 kV, capillary temperature=275° C., S-lens RF level=40, probe temperature=350° C. Metabolites were monitored using a polarity-switching full-scan method and identified by accurate mass (±20 ppm) and retention time within 15 seconds of a previously run pure standard. Metabolite peaks were identified and integrated with Xcalibur v.2.2 software (Thermo Fisher Scientific) and normalized to internal standard and to total cell volume, m/z ratios for stable isotopically labeled metabolites were obtained from IsoMETLIN (See, e.g., Cho, K. et al. “isoMETLIN: a database for isotope-based metabolomics.” Anal Chem 86, 9358-9361 (2014)) and corrected for natural abundance.

ALDH = ALDH (Homo sapiens (Human), UniProt P00352); assay: Counter-screen against ALDH; format: biochemical; details: Table E11
Chain of ALDH (P00352 whole entry): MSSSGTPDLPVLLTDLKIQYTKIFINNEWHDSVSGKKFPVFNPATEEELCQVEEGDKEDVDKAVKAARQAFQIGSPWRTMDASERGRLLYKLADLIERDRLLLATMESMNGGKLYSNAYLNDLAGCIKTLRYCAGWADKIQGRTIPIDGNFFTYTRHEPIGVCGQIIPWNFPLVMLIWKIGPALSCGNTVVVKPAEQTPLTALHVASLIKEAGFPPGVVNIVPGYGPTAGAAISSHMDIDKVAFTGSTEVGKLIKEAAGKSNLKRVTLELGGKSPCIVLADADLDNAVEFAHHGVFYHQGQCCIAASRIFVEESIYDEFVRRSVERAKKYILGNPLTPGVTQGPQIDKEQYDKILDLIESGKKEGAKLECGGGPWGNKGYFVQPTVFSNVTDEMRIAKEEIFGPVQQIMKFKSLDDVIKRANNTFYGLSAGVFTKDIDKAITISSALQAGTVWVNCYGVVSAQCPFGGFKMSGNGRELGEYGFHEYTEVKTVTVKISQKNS

GAPDH = GAPDH (Homo sapiens (Human), UniProt P04406); assay: Counter-screen against GAPDH; format: biochemical; details: Table E11
Chain of GAPDH (P04406 whole entry): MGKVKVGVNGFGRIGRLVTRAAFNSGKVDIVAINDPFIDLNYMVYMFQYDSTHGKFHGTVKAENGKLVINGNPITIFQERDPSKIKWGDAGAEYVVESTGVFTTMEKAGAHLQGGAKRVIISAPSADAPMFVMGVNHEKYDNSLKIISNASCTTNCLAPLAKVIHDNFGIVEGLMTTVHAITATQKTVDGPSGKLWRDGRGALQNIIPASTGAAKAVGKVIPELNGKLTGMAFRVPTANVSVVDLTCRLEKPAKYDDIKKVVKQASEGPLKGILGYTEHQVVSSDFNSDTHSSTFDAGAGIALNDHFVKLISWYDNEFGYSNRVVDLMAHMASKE
Description: GAPDH substrate buffer contained 210 mM Tris pH 7.4, 2.5 mM NaH2PO4 pH 7.4, 2 mM DL-Glyceraldehyde 3-phosphate, 1.75 mM MgCl2, 0.01 mM NAD+, 0.11 mM resazurin, 0.2 mg/mL BSA, and 0.01% Tween-20. GAPDH enzyme buffer contained 50 mM Tris pH 7.4, 100 mM NaCl, 0.02 mM TCEP, 0.01 mM EDTA, 0.1 mg/mL BSA, 0.42 mg/mL diaphorase, and 2.5 nM GAPDH. The GAPDH, GPD1, and GPD1L assays were run in 384-well plates using the same protocol and readout as the PHGDH assay. […] GPD1 enzyme buffer contained 50 mM Tris pH 7.4, 100 mM NaCl, 0.08 mM TCEP, 0.4 mg/mL BSA, 0.03 μM EDTA, and 0.8 nM GPD1. 70 μL of substrate buffer were mixed with 10 μL enzyme buffer. GPD1L substrate buffer contained 200 mM Tris pH 7.4, 0.05 mM sn-G3-P, 2 mM MgCl2, 0.04 mM NAD+, 0.11 mM resazurin, 0.1 mg/mL BSA, and 0.02% Tween-20. GPD1L enzyme buffer contained 50 mM Tris pH 7.4, 100 mM NaCl, 0.02 mM TCEP, 0.42 mg/mL diaphorase, 0.1 mg/mL BSA, 0.008 μM EDTA, and 16 nM GPD1L. 40 μL of substrate buffer were mixed with 40 μL of enzyme buffer.
The GAPDH and GPD1L assays were read using the same protocol as the PHGDH assay. The GPD1 assay was read using loss of NADH fluorescence (λex=340 nm and λem=460 nm).

T1 sequence (O43175 whole entry): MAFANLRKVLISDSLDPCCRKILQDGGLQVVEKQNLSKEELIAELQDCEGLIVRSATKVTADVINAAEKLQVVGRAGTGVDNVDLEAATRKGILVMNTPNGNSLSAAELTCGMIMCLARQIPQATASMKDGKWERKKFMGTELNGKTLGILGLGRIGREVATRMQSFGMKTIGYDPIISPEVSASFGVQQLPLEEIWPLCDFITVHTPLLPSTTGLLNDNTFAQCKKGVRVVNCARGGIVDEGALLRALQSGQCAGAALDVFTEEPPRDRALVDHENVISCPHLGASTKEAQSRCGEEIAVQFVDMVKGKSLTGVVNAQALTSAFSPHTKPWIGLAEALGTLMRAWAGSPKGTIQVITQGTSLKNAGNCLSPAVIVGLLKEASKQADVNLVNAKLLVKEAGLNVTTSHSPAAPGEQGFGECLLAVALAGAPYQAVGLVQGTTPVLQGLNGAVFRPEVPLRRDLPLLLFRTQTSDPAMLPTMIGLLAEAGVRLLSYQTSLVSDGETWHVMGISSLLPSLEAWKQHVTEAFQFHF

Row | Compound | IC50 (PHGDH [1]) [µM] | further results
1 | Cc1cc(C)nc(NC(=S)N2CCN(c3ccncc3)CC2)c1 [Compound 71, N-(4,6-dimethylpyridin-2-yl)-4-(pyridin-4-yl)piperazine-1-carbothioamide] | ≥ 20 | intracellular serine levels [2]: not reduced
2 | Cc1cc(C)nc(NC(=S)N2CCN(c3ccc(C(F)(F)F)cn3)CC2)c1 [Compound 72, N-(4,6-dimethylpyridin-2-yl)-4-(5-(trifluoromethyl)pyridin-2-yl)piperazine-1-carbothioamide] | – | cross-reactivity, modulation of activity (panel of 168 GPCRs): < 30%; Tm of PHGDH (PHGDH [3]): decreased; intracellular serine levels [2]: decreased; IC50 (HSD17B4): ≥ 100 µM; activity against a panel of other dehydrogenases [4]: inactive; reversibility of inhibition of serine synthesis in cells (MDA-MB-468 cells): reversible; IC50 (ALDH): 10 to 50 µM; IC50 (GAPDH): ≥ 100 µM
3 | COc1ccc(CN2CCN(C(=S)Nc3cc(C)cc(C)n3)CC2)cc1 [Compound 293] | 10 to 20 | –
4 | Cc1cc(C)nc(NC(=S)N2CCN(Cc3ccc(OC(F)(F)F)cc3)CC2)c1 [Compound 296] | < 5 | –
5 | Cc1cc(C)nc(NC(=S)N2CCN(Cc3ccc(C(F)(F)F)cc3)[C@@H](C)C2)c1 [Compound 297] | < 5 | –
6 | Cc1cc(C)nc(NC(=S)N2CCN(Cc3ccc(C(F)(F)F)c(Cl)c3)CC2)c1 [Compound 300] | 5 to 10 | –
7 | Cc1cc(C)nc(NC(=S)N2CCN(CC3CC3)CC2)c1 [Compound 301] | ≥ 20 | –

Second part, led by results:

Row | IC50 (PHGDH [1]) [µM] | Compound | further results
8 | < 5 | Cc1ccc(CN2CCN(C(=S)Nc3cc(C)cc(C)n3)CC2)cc1 [Compound 292] | –
9 | 10 to 20 | Cc1cc(C)nc(NC(=S)N2CCN(Cc3ccc(C(F)(F)F)cc3)C(CO)C2)c1 (stereo not drawn) [Compound 294] | –
10 | 5 to 10 | Cc1cc(C)nc(NC(=S)N2CCN(Cc3ccc(C(F)(F)F)cc3)C(C(=O)O)C2)c1 (stereo not drawn) [Compound 295, 4-((4,6-dimethylpyridin-2-yl)carbamothioyl)-1-(4-(trifluoromethyl)benzyl)piperazine-2-carboxylic acid] | –
11 | < 5 | Cc1cc(C)nc(NC(=S)N2CCN(Cc3ccc(C(F)(F)F)cc3)[C@H](C)C2)c1 [Compound 298] | –
12 | < 5 | Cc1cc(C)nc(NC(=S)N2CCN(Cc3cccc(OC(F)(F)F)c3)CC2)c1 [Compound 299] | –
13 | 5 to 10 | Cc1cc(C)nc(NC(=S)N2CCN(Cc3ccc(C)c(C(F)(F)F)c3)CC2)c1 [Compound 302] | –
